Test system: FKBP52-enhanced AR function
Assay: Yeast AR-mediated β-galactosidase reporter assay, tester strain (AR-P723S + FKBP52)
Assay type: cell-based
Details: DHT-induced β-galactosidase reporter
From the text: To investigate FTA inhibitory activity, a modified yeast-based assay was created to screen an in-house compound library. The receptor-mediated β-galactosidase assays were initially based on published methods ((Riggs D L, et al., EMBO J., 22:1158-67 (2003); Cox M B, et al., Toxicol. Lett. 129:13-21 (2002) and Balsiger, H. A., and Cox, M. B., in Methods in Molecular Biology: The Nuclear Receptor Superfamily, vol. 505. Edited by I. J. McEwan. The Humana Press, Totowa, N.J. (2008)), however, the assay methods were modified substantially to allow use of a 96-well plate format. All cDNAs for the FKBP proteins were obtained from the laboratory of David Smith at the Mayo Clinic, Arizona. The AR-P723S mutant was originally described previously (Cheung-Flynn, J. et al. (2005)).
All receptors and FKBP proteins were expressed from a set of yeast expression vectors that are commercially available (Mumberg, D., et al., Gene 156: 119-122 (1995)). […]
The strains were cultivated overnight using a shaking incubator in SC-HUW medium (synthetic complete medium lacking histidine, uracil and tryptophan). […] About one hour later, the plate was read in a luminometer. The measured RLU (relative light units) was normalized to the cell density of the cultures, at the time they were added to the plates, to give a measure of RLU/OD unit. […]

Cc1ccc(NC(=O)c2ccccc2C(=O)O)cc1C [Compound 1]
inhibition of FKBP52-enhanced AR function: inhibits FKBP52-enhanced AR function
